# “And” between values parts separate entries of the source, which are not always exact repeats. Equal values may be shown once.
# What was measured:
# PtCAL-1a/PtCAL-2a = target: T1, PtCAL-1a/PtCAL-2a (Phlegmariurus tetrastichus, UniProt P0DXL1+P0DXL3); test: In vitro reactions with apoplastic PtCAL-1a/PtCAL-2a (formation of 9, decarboxylation of 3, Zn chelator); assay type: biochemical
# T1 construct: N-terminal signal peptide[58], which would be cleaved during processing and trafficking of these proteins; made in house; host or cells: Nicotiana benthamiana leaves (Agrobacterium transient co-expression, pEAQ-HT), concentrated apoplast extract
# T1 sequence (P0DXL1 22-280): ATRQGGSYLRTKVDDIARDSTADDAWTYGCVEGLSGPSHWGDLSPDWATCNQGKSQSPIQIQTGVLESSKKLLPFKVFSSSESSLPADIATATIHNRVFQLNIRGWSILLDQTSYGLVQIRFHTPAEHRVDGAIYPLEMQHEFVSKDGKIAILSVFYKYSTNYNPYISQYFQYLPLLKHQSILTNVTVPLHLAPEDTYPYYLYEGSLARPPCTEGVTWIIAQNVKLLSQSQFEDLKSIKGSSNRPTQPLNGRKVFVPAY
# T1 sequence (P0DXL3 24-284): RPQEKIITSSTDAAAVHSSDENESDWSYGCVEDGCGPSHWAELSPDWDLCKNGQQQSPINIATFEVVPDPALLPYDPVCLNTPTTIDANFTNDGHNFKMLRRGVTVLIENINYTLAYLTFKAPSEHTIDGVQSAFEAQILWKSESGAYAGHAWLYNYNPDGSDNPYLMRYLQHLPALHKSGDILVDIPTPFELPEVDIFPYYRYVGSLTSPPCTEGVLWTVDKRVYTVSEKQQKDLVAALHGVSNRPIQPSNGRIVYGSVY
# Source text: The three CAL proteins identified in this study have predicted N-terminal signal peptides, which were identified using the TargetP-2.0 server (https://services.healthtech.dtu.dk/service.php?TargetP-2.0)[58]. […] To assess this possibility, CAL genes with or without C-terminal 6xHis tags were transiently expressed in N. benthamiana, as described above. Each CAL gene was expressed individually; also, PtCAL-1a and PtCAL-2a were transiently co-expressed in the same leaf because we had found them to cofunction in Lycopodium alkaloid biosynthesis. At 4 days after Agrobacterium infiltration, apoplast protein extracts were isolated using the infiltration–centrifugation method, much as previously described. Two leaves per reaction were excised from the plant and submerged in ice-cold apoplast extraction buffer (100 mM MES, 300 mM NaCl, pH 5.5) in an open-capped 50 ml Falcon tube and these tubes were placed in a plastic vacuum chamber attached to a Welch Model 2025 vacuum pump. The chamber was brought down to full vacuum and after 2 min at this pressure, the vacuum was slowly released to allow for buffer to infiltrate the leaf apoplastic space. Buffer-infiltrated leaves were carefully removed from the Falcon tubes, blotted dry with paper towels and were then rolled into Parafilm and placed in a plungerless 5 ml plastic syringe. The syringe was placed in a 15 ml Falcon tube and this was then centrifuged at 1,000g and 4 °C for 10 min to collect apoplast extract. The resulting extract was centrifuged at 10,000g and 4 °C for 15 min to pellet any larger cellular debris and the supernatant was concentrated using an Amicon Ultra-4 Centrifugal Filter Unit (10 kDA MWCO, MilliporeSigma UFC501024). Protein concentrations were measured using the BIO-RAD Protein Assay or Bradford assay (Abcam 119216) and adjusted with apoplast extraction buffer to a final concentration between 0.5 and 1.5 mg ml^−1. Aliquots of the extracts were snap frozen in liquid nitrogen and stored at −80 °C.
# Reactions with CAL-enriched apoplast were routinely performed in low-pH potassium phosphate buffer (50 mM potassium phosphate, 100 mM NaCl, pH 5.9) at a volume of 20 µl. For PtCAL-1a/PtCAL-2a, these reactions contained approximately 1.4 µg of apoplast protein for each CAL (final concentration of 0.07 µg µl^−1). Control reactions used apoplast from leaves expressing only one CAL or with apoplast generated from GFP-expression N. benthamiana leaves. The requisite substrates for this reaction were generated through the activities of in vitro PtPIKS-1 and PtCYP782C1 enzyme reactions. […]. To generate 3 and 4 as potential substrates, 1 µg of previously purified PtPIKS-1 enzyme[23] and 150 µM 1 and 300 µM malonyl-CoA were added directly to the CAL reaction mixtures. After thorough mixing, reactions were incubated at room temperature. An alternative route for producing 3 and 4 independently of thioester intermediates was achieved by mixing stocks of 1 (10 mM in water) and 2 (10 mM in water; always prepared fresh to minimize compound decomposition) in equal proportion, followed by incubation at room temp for 1–2 h, as these two substrates can non-enzymatically condense to yield 3 (which can spontaneously decarboxylate to produce 4). A 2 µl aliquot of this mixture was then added as a component of the PtCAL-1a/PtCAL-2a enzyme reaction (20 µl total reaction volume) in addition to the PtCYP782C1 microsomal reaction mixture. After predesignated incubation times, reactions were quenched by diluting tenfold into ACN with 0.1% formic acid.
# To evaluate the potential decarboxylation of β-keto acid substrates by PtCAL-1/PtCAL-2 and PtCAL-3, only 3 or 2, respectively, were added as substrate. PtCAL-1/PtCAL-2 reactions were quenched by diluting aliquots tenfold into ACN with 0.1% formic acid and were subsequently analysed through HILIC LC–MS. PtCAL-3 reactions were quenched by mixing aliquots with an equal volume of water with 0.2% formic acid and were then analysed through C18 LC–MS. […]
# [1] = Stability of PtCYP782C1 products in leaf extract incubated at room temperature; assay type: physicochemical; conditions: samples incubated at room temperature for 1 h
# Protocol: The production of (2S, 4S)-6 and (2S, 4R)-6 was consistent with our hypothesis for elimination-mediated formation of the proposed diene (8). Because formation of 8 would require oxidation of the O-acetylated substrate(s), we next screened CYP and 2OGD family enzymes found in cluster131. […] This coincided with the presence of two new compounds: one that corresponded to a single oxidation (desaturation) of the O-acetylated substrate (7, [M + H]^+ = m/z 184.1332, retention time 1.86 min), as well as another which shared the same exact mass as 8 ([M + H]^+ = m/z 124.1121, retention time 1.93 min). […] Although this limited our ability to access authentic standards, tandem mass spectrometry (MS/MS or MS^2) analysis supported the proposed structures of 7 and 8 and ultraviolet (UV) analysis of 8 corroborated the presence of the predicted α,β-unsaturated imine in this molecule[34] (Extended Data Fig. 2c,d). […]
# Extended Data Fig. 2 Functional characterization of PtCYP782C1. a) Transient expression of PtCYP782C1 with a biosynthetic module for the production of 6 diastereomers (PtLDC, PtCAO, PtPIKS, PtSDR-1 or PtSDR-2 and PtACT-1) in N. benthamiana. […] Product abundance is calculated as the integration of the peak generated in the EIC for each mass ion. g) Relative activity of PtCYP782C1 microsomes at varying pH, as determined via production of both 7 and 8. […]
# several insect species = tested on: several insect species; parameters: method as in PMID 11804518; conditions: cited from earlier work
structure (smiles),measurement,setting,value
"O=C(O)CC(=O)CC1CCCCN1 (centres unmarked) [compound 3, 4-(2-piperidyl)acetoacetic acid]",ratio of 4 ion abundance (m/z 142.1226) to that of 3 (m/z 186.1125),PtCAL-1a/PtCAL-2a; PtCAL-1a/PtCAL-2a +3 (ED 4h),31.4694 and 27.1428 and 38.6295
same,ratio of 4 ion abundance (m/z 142.1226) to that of 3 (m/z 186.1125),"PtCAL-1a/PtCAL-2a; PtCAL-1a/PtCAL-2a +3, 0.25 hrs (ED 4g)",66.6374 and 57.9149 and 54.0594
same,ratio of 4 ion abundance (m/z 142.1226) to that of 3 (m/z 186.1125),"PtCAL-1a/PtCAL-2a; PtCAL-1a/PtCAL-2a +3, 0.5 hrs (ED 4g)",59.9271 and 67.8727 and 55.7877
same,ratio of 4 ion abundance (m/z 142.1226) to that of 3 (m/z 186.1125),"PtCAL-1a/PtCAL-2a; PtCAL-1a/PtCAL-2a +3, 1 hrs (ED 4g)",70.6508 and 59.4497 and 51.4084
same,ratio of 4 ion abundance (m/z 142.1226) to that of 3 (m/z 186.1125),"PtCAL-1a/PtCAL-2a; PtCAL-1a/PtCAL-2a +3, 2 hrs (ED 4g)",57.1082 and 53.747 and 49.4186
CC(=O)OC(C)CC1=NCCCC1 (centres unmarked) [compound 7],stability of compound in sample,[1],almost entirely lost
C/C=C/C1=NCCCC1 [compound 8],stability of compound in sample,[1],almost entirely lost
"C/C=C1\[C@H]2C=C(C)C[C@]1(N)c1ccc(=O)[nH]c1C2 [compound 17, huperzine A]",antifeedant activity,several insect species,antifeedant activity

# Source: publication PMC10700139 (Nature, 2023)
